Results reported in PubChem BioAssay (NCI).
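Following 48 hours of exposure in 96-well plates, responses at five concentrations were used to interpolate endpoints linearly. Here, GI50 denotes the concentration required for 50% inhibition of growth. Definition used: TGI = concentration required for complete inhibition of growth.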

Experiments:
Test in all cases: DTP human tumour cell line panel, 48 h
NCI-H23 lung = test system: NCI-H23 lung
DU-145 prostate = test system: DU-145 prostate
SF-268 CNS = test system: SF-268 CNS
OVCAR-4 ovarian = test system: OVCAR-4 ovarian
TK-10 renal = test system: TK-10 renal
NCI-H460 lung = test system: NCI-H460 lung
UO-31 renal = test system: UO-31 renal
HT29 colon = test system: HT29 colon
MDA-N = test system: MDA-N
MDA-MB-231 breast = test system: MDA-MB-231 breast
U251 CNS = test system: U251 CNS
UACC-62 melanoma = test system: UACC-62 melanoma
A549 NSCLC = test system: A549 NSCLC
SNB-19 CNS = test system: SNB-19 CNS
MDA-MB-435 = test system: MDA-MB-435

Row | SMILES | TGI (NCI-H23 lung) [µM] | TGI (DU-145 prostate) [µM] | TGI (SF-268 CNS) [µM] | TGI (OVCAR-4 ovarian) [µM] | TGI (TK-10 renal) [µM] | TGI (NCI-H460 lung) [µM] | TGI (UO-31 renal) [µM] | TGI (HT29 colon) [µM] | TGI (MDA-N) [µM] | TGI (MDA-MB-231 breast) [µM] | TGI (U251 CNS) [µM] | TGI (UACC-62 melanoma) [µM] | TGI (A549 NSCLC) [µM] | TGI (SNB-19 CNS) [µM] | TGI (MDA-MB-435) [µM] | GI50 (SF-268 CNS) [µM]
1 | Cn1c2ccccc2c2c(-c3ccccc3)cc3c(c21)C(=O)C=CC3=O | 3.81 | > 10 | > 9.19 | 5.75 | 3.4 | > 10 | 3.37 | > 9 | > 7.18 | 5.72 | > 9.67 | 2.64 | > 10 | > 10 | 4.32 | 
2 | CNC1=C(C)C(=O)C(=O)C([C@H](C)CCC=C(C)C)=C1O | > 100 | > 100 | > 100 | > 77 | > 100 | > 100 | 49.7 | > 100 | > 100 | > 100 | > 100 | > 72.3 | > 100 | > 100 | > 100 | 
3 | O=C(NC1=NCC(CN2CCN(c3ccccc3)CC2)O1)Nc1ccccc1 (stereo unspecified) | > 100 | > 100 | > 100 | > 100 | > 100 | > 100 | > 100 | > 100 | > 100 | > 100 | > 100 | > 100 | > 100 | > 100 | > 100 | 
4 | NC(N)=N/N=C/c1c(-c2ccc(Cl)cc2)nc2sccn12 | 19.9 | 13.1 | 3.72 | 4.24 | 6.53 | 3.53 | 7.49 | 3.23 | 3.33 | 8.15 | 3.59 | 3.39 | 3.15 | 20.7 | 3.43 | 
5 | COC1=C(OC)C(=O)C(Cc2c(Cl)nc3sc(C)cn23)=C(C)C1=O | 42.6 | 61 | 37 | 20.6 | 31.7 | 37.8 | 42.9 | 36.3 | 32.8 | 41.8 | 36 | 25.6 | 41.8 | 41.3 | 35.3 | 
6 | N#Cc1c(N)nc(-c2ccc(Cl)cc2)c2c1-c1ccccc1S(=O)(=O)CC2 | > 100 | > 100 | > 100 | > 100 | > 100 | > 100 | > 100 | > 100 | > 100 | > 100 | > 100 | > 100 | > 100 | 93.9 | > 100 | 
7 | COC(=O)/C=C(/C)n1nc2ccccc2n1 | > 100 | > 100 | > 100 | > 100 | > 100 | > 100 | > 100 | > 100 | > 100 | > 100 | > 100 | > 100 | > 100 | > 100 | > 100 | 
8 | C(=C\c1cccs1)/c1cccc(/C=C/c2cccs2)n1 | > 100 | > 100 | 6.9 | 66.6 | > 100 | > 100 | > 100 | > 100 | > 100 | > 100 | > 100 | > 100 | > 100 | > 100 | > 100 | 
9 | COC(=O)C1(C(=O)OC)Cc2ccc(OC)cc2C2=C1C(=O)c1ccccc1C2=O | 21.9 | 30.3 | 26.2 | 3.43 | 33.4 | 33 | 18.6 | 59.5 | 3.36 | 4.34 | 14.8 | 4.37 | 30.9 | 33.4 | 3.52 | 
10 | O=C1C(Cl)C2(CC(/C=C/c3ccccc3Cl)=NN2c2cccc(S(=O)(=O)O)c2)N1c1nc2ccccc2s1 (stereo unspecified) | > 100 | 87.5 | > 100 | > 100 | 84.6 | > 100 | 16.3 | > 100 | > 100 | > 100 | > 100 | > 100 | > 100 | > 100 | 24.3 | 
11 | Cc1ccc(S(=O)(=O)n2cc(-c3cc(C(F)(F)F)ccn3)c3cc(Br)ccc32)cc1 | 31.1 | > 100 | 93.9 | 29.7 | 44.8 | > 100 | 24.7 | > 100 | > 100 | 46.5 | 34.3 | 33.3 | 51.8 | 37.5 | > 100 | 
12 | CC(C)OC(=O)c1ccc(NCc2cc(O)ccc2O)cc1Cl | 28.6 | 26.4 | > 66.4 | 21.9 | 20.2 | 23.7 | 2.38 | > 93 | 22.6 | > 54 | 24.6 | 18.6 | > 76.7 | > 22.2 | 23.3 | 
13 | C=CCN1C(=O)/C(=C/c2ccc(OC)cc2)N=C1SC/C=C/C | > 100 | > 100 | > 100 | > 100 | > 100 | > 100 | > 100 | > 100 | > 100 | > 100 | > 100 | > 100 | > 100 | > 100 | > 100 | 
14 | O=C(CN1CCCCC1)Nc1ccc2sc3ccccc3c(=O)c2n1 | 38.8 | > 100 | 74.3 | > 100 | 50.4 | 36.5 | 21.6 | > 100 | 28.7 | 59.9 | 35.1 | 30.1 | 31.7 | 59.8 | 26.2 | 
15 | OC1(c2cccs2)c2cccc(Cl)c2C(O)(c2cccs2)c2c(Cl)cccc21 (stereo unspecified) | > 100 | > 100 | 75 | > 100 | > 100 | > 100 | > 100 | > 100 | > 100 | > 100 | > 100 | > 100 | > 100 | > 100 | > 100 | 
16 | O=C1/C(=C/c2ccccc2O)N=C(c2ccccc2)N1C1Nc2cc3c(cc2S1)NC(N1C(=O)/C(=C/c2ccccc2O)N=C1c1ccccc1)S3 (stereo unspecified) | > 100 | > 100 | 59.6 | > 100 | > 100 | > 100 | > 100 | > 100 | > 100 | > 100 | > 100 |  |  |  | > 100 | 
17 | O=C1/C(=C/c2cccc(Br)c2)CCc2ccccc21 | 32.6 | 30.9 | 21.8 | 26.7 | 31 | 28.5 | 26.7 | 27.1 | 24.5 | 35.9 | 28 | 22.4 | 34.6 | 27.9 | 25.4 | 
18 | C=CCOc1cccc(C2(O)c3ccccc3C3=NCCCN32)c1 (stereo unspecified) | > 47.2 | > 100 | > 100 | > 80.1 | > 100 | 36.7 | 29.4 | 27.2 | 33.1 | > 100 | 32.5 | 31.6 | > 39.4 | 18.4 | 26 | 
19 | O=C1CCC2C(O)c3cc4c(cc3C(c3ccc5c(c3)OCO5)N12)OCO4 (stereo unspecified) | > 100 | > 100 | 52.5 | > 100 | > 100 | > 100 | > 100 | > 100 | > 100 | > 100 | 60.9 | > 100 | > 100 | > 100 | > 100 | 
20 | CCCCCCCCCCCCCCCCCCNc1ccn(C2OC(COP(=O)(O)OCC3OC(n4cc(F)c(=O)[nH]c4=O)CC3O)C(O)C2O)c(=O)n1 (stereo unspecified) | 17.9 | > 100 | > 50 | > 100 | > 55.5 | > 100 | > 100 | > 84.3 | > 100 | > 100 | > 100 | > 74.4 | > 100 | > 100 | > 100 | 
21 | CN(C)Nc1cc(=O)[nH]c(=O)[nH]1 |  | > 100 | > 100 | > 100 | > 100 | > 100 | > 100 | > 100 | > 100 | > 100 | > 100 |  | > 100 | > 100 | > 100 | 
22 | CCOC(=O)c1cnc2oc3ccc(O)cc3c2c1C | > 100 | > 100 | > 100 | > 100 | > 100 | > 100 |  | > 100 | > 100 | > 100 | > 100 | > 100 | > 100 | > 100 | > 100 | 69.9
23 | COc1ccc2[nH]cc(CCNC(=O)[C@H](Cc3ccccc3)NC(=O)[C@@H](NCC(F)(F)F)C(C)C)c2c1 | 64.6 | 37.7 |  | 32.3 | 57.4 | 46.3 | 68.3 | 31.5 | 34 | 35.9 | 39 | 36.2 | 70 | 84.8 | 34.8 | 
24 | O=[N+]([O-])/C(C(Cl)=C(Cl)Cl)=C(\N1CCOCC1)n1nnc2ccccc21 | 32.7 | 37.5 | 40 | 76.1 | 63.8 | 45.6 | 33 |  | 42.5 | 35.1 | 30.3 | 46.7 | 42.7 | 33.7 | 41 | 
25 | O=C1c2cc(Cl)ccc2-n2cnnc2C2CSCN12 (stereo unspecified) |  | > 100 | > 100 | > 100 | > 100 | > 100 | > 100 | > 100 | > 100 | > 100 | > 100 | > 100 | > 100 | > 100 | > 100 | 
26 | CC(=O)NC1C(OCc2ccccc2)OC(CO)C(O)C1OC(C)C(=O)NC(C(=O)N[C@@H](CCC(=O)NCCNCCNc1c2ccccc2nc2cccc([N+](=O)[O-])c12)C(N)=O)C(C)C (stereo partly specified) | > 100 | > 100 | > 100 | > 100 | > 100 | > 100 | 64.6 |  | 54.5 | > 100 | > 100 |  | 97 | > 100 | 29.3 | 
27 | C=CCNC(=O)NC(=O)CSC1=NNC2(C(=O)N1)c1ccccc1-c1ccccc12 | > 10 | > 10 | > 10 | > 10 | > 10 | > 10 | > 10 | > 10 | > 10 | > 10 |  | > 10 | > 10 | > 10 | > 10 | 
28 | CCOc1cc(NC(C)=O)ccc1C(=O)NN1C(=O)C(Cl)C1c1ccccc1 (stereo unspecified) | 32.3 | 32.2 | 43.8 | 32.7 | 31.2 | 33.6 | 14.9 | 31.2 | 32.9 | 26.7 |  | 23.3 | 33.3 | 28.4 | 26 | 
29 | CC1=NN(C(=O)c2ccccc2O)C(=O)/C1=C/c1ccco1 | > 26.9 | > 100 | > 100 | > 84.8 | > 100 | > 60.5 |  | > 100 | > 100 | > 100 | > 100 | 6.27 | > 100 | > 91.1 | > 100 | 
30 | Cc1csc2c(=O)n(C3OC(CO)C(O)C3O)c(=O)[nH]c12 (stereo unspecified) | > 100 | > 100 | > 100 | > 100 | > 100 | > 100 | > 100 | > 100 | > 100 | > 100 | > 100 |  | > 100 | > 100 | > 100 | 
